From patent publication US5631146A, “DNA aptamers and catalysts that bind adenosine or adenosine-5'-phosphates and methods for isolation thereof” (The General Hospital Corporation, priority 1995, dated 1997)

Columns and labels:
[1] = test system: adenosine/ATP-binding single-stranded DNA aptamer (minimal ATP aptamer DH25.42, SEQ ID NO:46); experiment: ATP analog elution of bound aptamer from ATP-agarose column; settings: 3 column volumes of 1.5 mM analog
Method: FIG. 9A-C are graphs of exemplary elution profiles with analogs of ATP. DNA was loaded onto an ATP-agarose affinity column and washed with 10 column volumes of wash buffer. Bound DNA was then eluted with 3 column volumes of wash buffer containing 1.5 mM analog, then washed with 2 more column volumes of wash buffer; remaining DNA was then eluted in 3 column volumes of wash buffer containing 1.5 mM ATP. Data point at column volume 19 is that remaining on the column after all washes. Elution profiles with 9A. adenosine, 9B. 3-methyl adenine, and 9C. purine riboside.
FIG. 10 is a schematic diagram showing the specifity of the adenosine/ATP aptamer, as determined by analog elution experiments. ++, 85-100% of DNA eluted in 3 column volumes of 1.5 mM ligand; +, 70-84% of DNA eluted in 3 column volumes of 1.5 mM ligand; +/-, 6%-69% of DNA eluted in 3 column volumes of 1.5 mM ligand; -, <5% of DNA eluted in 3 column volumes of 1.5 mM ligand. The regions most important for binding are highlighted by the shaded boxes. […]
10-500 ng (1.2 pmol-60 pmol) of affinity purified DNA was loaded onto a 1/4 ml bed volume ATP-agarose column pre-equilibrated with column buffer. […] Each fraction was then analyzed by Cerenkov counting. […]

[2] = target: adenosine/ATP-binding single-stranded DNA aptamer (minimal ATP aptamer DH25.42, SEQ ID NO:46); experiment: Kd for adenosine by analytical ultrafiltration; settings: room temperature, column buffer (300 mM NaCl, 5 mM MgCl2, 20 mM Tris pH 7.6), 5.49 nM [3H]adenosine, average of two estimates, read-out: Kd for adenosine in solution
Method: Although quantitative binding data from column elution experiments is imprecise, an estimate of adenosine affinity in solution was obtained by ultrafiltration experiments (Jenison et al., Science 263:1425-1429, (1994)).
The Kd for adenosine was measured by analytical ultrafiltration (Jenison et al., Science 263:1425-1429, (1994)). In this technique bound and unbound ligand partition across a membrane in a ultra filtration device. DNA (0.06 μM-30 μM) was incubated for 5 min. at room temperature in 200 μl of column buffer containing 5.49 nM [2,8,5'^3H] adenosine. The reaction mixture was loaded onto an Microcon 10 microconcentrator (Amicon) and spun at 14000 RPM in an Eppendorf 5415 centrifuge for 4 min., resulting in 100 μl of ultrafiltrate. This method could not be used with ATP because only 30% of ATP passed through the filter in 50% of the volume. Even with adenosine, only 40-45% passed through in 50% of the volume. The Kd was estimated from the concentration of DNA calculated to decrease the amount of adenosine passing through the filter by 50%. During the course of the experiment the DNA concentration increases by a factor of two since the DNA is retained above the filter; therefore, using the initial DNA concentration would give an artificially low Kd, and using the final DNA concentration would give an artificially high Kd. The Kd reported is the average of these two estimates. […]

Structure (SMILES): Nc1ncnc2c1ncn2[C@H]1O[C@H](CO)[C@@H](O)[C@H]1O [9-α-ribofuranosyladenine]
- elution of bound aptamer from the ATP-agarose column by analog [1]: did not elute bound aptamer

Structure (SMILES): Nc1ncnc2c1ncn2[C@@H]1O[C@H](CO)[C@@H](O)[C@H]1O [adenosine]
- Kd [2]: 6 ± 3 µM
